# Reference: paper PMC9820763, “The Functional Characterization of Carboxylesterases Involved in the Degradation of Volatile Esters Produced in Strawberry Fruits” (International Journal of Molecular Sciences, 2022)
# Legend:
# [1] = system: T1, rFaCXE2 (FaCXE2); assay: GC-MS of alcohol product, double-reciprocal plot; format: biochemical, Fragaria x ananassa; conditions: Tris-HCl 100 mM, pH 7.5, 30 °C
# T1 construct: fusion protein about 35-40 kDa; cloned from strawberry green fruit cDNA
# From the text: GC-MS of alcohol product, double-reciprocal plot on rFaCXE2 (FaCXE2)
# [2] = system: T2, rFaCXE3 (FaCXE3); assay: GC-MS of alcohol product, double-reciprocal plot; format: biochemical, Fragaria x ananassa; conditions: Tris-HCl 100 mM, pH 7.5, 30 °C
# T2 construct: fusion protein about 35-40 kDa; cloned from strawberry green fruit cDNA
# From the text: GC-MS of alcohol product, double-reciprocal plot on rFaCXE3 (FaCXE3)
Km [1],Km [2],SMILES
1040 ± 50 µM,980 ± 110 µM,CCC/C=C/COC(C)=O [E-2-Hexenyl acetate]
10900 ± 840 µM,840 ± 70 µM,CCCCCCOC(C)=O [Hexyl acetate]
2500 ± 130 µM,950 ± 50 µM,CC/C=C\CCOC(C)=O [Z-3-Hexenyl acetate]
